{
  "source": "patent US20220118159A1",
  "about": "“ANTIOXIDANT-RELEASING VITREOUS SUBSTITUTES AND USES THEREOF” (Ohio State Innovation Foundation, priority 2019, published 2022)",
  "key": {"[1]": {"assay": "Vitamin C remaining (stability) study, absorbance at 265 nm", "quoted_text": "(§5) Chitosan (Sigma-Aldrich, low molecular weight, 1 mg/ml) was dissolved in acetic acid solution (1% w/w, 500 ml) for 60 min at 500 rpm. Sodium tripolyphosphate (1.75 mg/ml, 500 ml) was added dropwise into the chitosan solution to form nanoparticles over 2 hours. The nanoparticles were collected by centrifugation at 4000 rpm for 15 min at 21° C. The particles were washed with deionized water and again centrifuged. Vitamin C (10% w/w, 10 ml, pH 5.5) was added to the particles and equilibrated for 18 hours on an orbital shaker. Sodium alginate (FMC BioPolymer, Protanal PH, 1 mg/ml, 10 ml, pH 5.5) was added to the vitamin C and chitosan particle solution and sonicated for 30 min. Chitosan (Sigma-Aldrich, low molecular weight, 1 mg/ml in 1% w/w acetic acid solution, 10 ml) or gelatin (bloom 175, 1 mg/ml, 10 ml) was added to the vitamin c-chitosan-alginate particles and sonicated for 30 min. The particles were collected by centrifugation at 4000 rpm for 15 min at 21° C. and freeze dried. […] Concentration of vitamin C versus time was determined using methods as described elsewhere in the Examples.\n(§6) Either the particle solutions or the chemically-stabilized Vitamin C solutions were incubated in the hydrogels at 37° C.\n(§7) For each solution tested, a control group with no vitamin C and a test group with vitamin C (1% w/w) alone in DPBS were included. […] All solutions were kept at 37° C. throughout the release studies. The amount of viable vitamin C remaining in the solutions was measured using a Synergy HT multi-mode microplate reader (BioTek, Winooski, Vt.) at wavelength 265 nm and compared to the control groups to determine the amount of viable vitamin C left in the solutions. To measure the concentration of vitamin C, solutions with particles were centrifuged at 3220 rpm for 5 min and solution (500 uL) was removed and placed into a 96-well plate measured on days 0, 1, 2, 3, 4, 7, 8, 9, 10, 11, and 14. After two weeks, solutions with higher concentrations of vitamin C were measured every other day until vitamin C was undetectable. For the particle solutions, DPBS solutions (500 uL) was added back into the solution to maintain a constant volume."}, "LEC [2]": {"tested_on": "LEC", "assay": "CellTiter-Glo luminescent cell viability assay", "protocol": "(§1) Cell Viability and ROS Activity Assays. ARPE-19 and LEC were seeded in 96-well plates at 1×10^4 cells per well in DMEM/F-12 and DMEM, respectively, supplemented with 10% FCS and 1% Pen Strep for 24 h at 37° C. in 5% CO2 humidified atmosphere. The hydrogels were submerged in 70% ethanol for 1 hour to sterilize, rinsed with deionized water 3 times for 1 hour each to remove the residual ethanol, and mixed well with serum-free and phenol red-free DMEM at a hydrogel concentration of 10% w/v (J. Chang, et al., J Mater Chem B. 2015, 3, 1097-1105; Y. Tao, et al., Acta Biomater. 2013, 9, 5022-5030; M. Annaka, et al., Biomacromolecules. 2011, 12, 4011-4021; and S. Lamponi, et al., J. Biomater. Sci. Polym. Ed. 2012, 23, 555-575). The culture medium in each well was removed and medium (100 μL) with/without hydrogel and with/without vitamin C (2.2 mM) was added to each well and incubated for 24 hours. Hydrogen peroxide (10 200 μM final concentration) was added to half of the wells, and DPBS (10 μL) was added to the remaining wells as a control (A. Heckelen, et al., Acta Ophthalmol Scand. 2004, 82, 564-568; and H. S. Lee, et al., Invest. Ophthalmol. Vis. Sci. 2017, 58, 1196-1207). The well plates were incubated for 30 minutes. CellTiter-Glo luminescent cell viability assay was conducted according to the manufacturer's protocol. Briefly, the well plates were equilibrated to room temperature for 30 minutes. CellTiter-Glo Reagent (100 μL) was added to each well, and the contents were mixed for 10 minutes using an orbital shaker. The well plates were incubated at room temperature for 10 minutes before the luminescent signal was measured using the Synergy HT multi-mode microplate reader. ROS activity was detected using DCF. Briefly, DCF (100 20 μM final concentration) was added to each well, and the contents were incubated at room temperature for 30 minutes (Y. Ou, et al., Chem Biol Interact. 2009, 179, 103-109). The fluorescence signal was measured with excitation and emission wavelengths of 485 and 525 nm, respectively, using a TECAN M200 Plate Reader (Männedorf, Switzerland).\n(§2) Screening of Hydrogen Peroxide, Vitamin C, and Glutathione Concentrations Using a Cell Viability Assay: ARPE-19 and LEC were seeded in 96-well plates at 1×10^4 cells per well in DMEM/F-12 and DMEM, respectively, supplemented with 10% FCS and 1% Pen Strep for 24 h at 37° C. in 5% CO2 humidified atmosphere. The culture medium in each well was removed and various media with vitamin C (2000 μM, 1000 μM, 500 μM, 100 μM, and 0 μM) or glutathione (10000 μM, 4000 μM, 2000 μM, 1000 μM, 500 μM, and 0 μM) was added to each well (100 μL) and incubated for 24 hours. Hydrogen peroxide (600 μM, 400 μM, 200 μM, 100 μM, 50 μM, and 0 μM) and a special case of vitamin C (2000 μM) was added (100 μL) 30 minutes before performing the viability assays. CellTiter-Glo luminescent cell viability assay was conducted according to the manufacturer's protocol. Briefly, the well plates were equilibrated to room temperature for 30 minutes. CellTiter-Glo Reagent (100 μL) was added to each well, and the contents were mixed for 10 minutes using an orbital shaker."}, "ARPE-19 [3]": {"tested_on": "ARPE-19", "assay": "CellTiter-Glo luminescent cell viability assay", "protocol": "as §1, §2"}, "LEC [4]": {"tested_on": "LEC", "assay": "ROS activity, DCF assay", "type": "cell-based, human", "protocol": "(§3) Cell Viability and ROS Activity Assays. […] The well plates were incubated for 30 minutes. […] ROS activity was detected using DCF. […] The fluorescence signal was measured with excitation and emission wavelengths of 485 and 525 nm, respectively, using a TECAN M200 Plate Reader (Männedorf, Switzerland).\n(§4) Antioxidant Activity of Vitamin C in Reducing Reactive Oxygen Species (ROS) Activity Using DCF Assay: The ROS activity induced by hydrogen peroxide (200 μM for 30 minutes) of ARPE-19 and LEC treated with vitamin C (0, 100, and 1000 μM for 30 minutes or 24 hours) was determined using dichlorofluorescein assay. Briefly, LEC and ARPE-19 cells were cultured as aforementioned."}, "ARPE-19 [5]": {"tested_on": "ARPE-19", "assay": "ROS activity, DCF assay", "type": "cell-based, human", "protocol": "as §3, §4"}, "[6]": {"settings": "2 mM", "quoted_text": "as §5, §6, §7"}, "[7]": {"assay": "Sodium ascorbate degradation and release from polyacrylamide hydrogels", "type": "physicochemical", "settings": "PBS, lag time about 36 hours after making", "protocol": "The 2 mM sodium ascorbate solutions in PBS, which was diluted 20× before measurement as previously described, show an exponential-like decay in concentration over time (note that the y-axis is plotted on a log scale). Additionally, its concentration at time 0 was 1.4 mM, not 2 mM as made, since there was a lag time between when the solutions were made and when the experiment started. This lag time (about 36 hours) was due to the delayed gelation time of polyacrylamide hydrogels. The polymer solutions with sodium ascorbate gelled within 18 hours. However, the polymer solutions without sodium ascorbate took twice as long to gel.\nThe gelled polyacrylamide hydrogels (1 ml) with or without sodium ascorbate were submerged in 10 ml of PBS. […] The 1 ml aliquots were measured without dilution, since the sodium ascorbate concentrations were already within the linear region of the standard curve.\nThe absorbance readings of the hydrogels without sodium ascorbate increase with time. Since there was no sodium ascorbate added to these hydrogels, the increase in absorbance could be due to the small pieces of polymer leached out from the hydrogel causing UV light interference. […] The absorbance readings of hydrogels without sodium ascorbate can be subtracted from the ones with sodium ascorbate to obtain the true absorbance reading due to the varying concentrations of sodium ascorbate."}, "[8]": {"settings": "glutathione, all tested conditions up to 10000 μM, 24 hours"}, "[9]": {"settings": "hydrogen peroxide 200 μM, 30 minutes, compared to control"}, "[10]": {"settings": "Example 7: hydrogen peroxide 200 μM final, 30 minutes, vs non-treated"}, "[11]": {"settings": "H2O2 200 μM and 400 μM, 30 minutes"}, "[12]": {"settings": "hydrogen peroxide 600 μM, 30 minutes"}, "[13]": {"settings": "hydrogen peroxide at or below 100 μM, 30 minutes"}, "[14]": {"settings": "vitamin C 100 μM for 24 hours, H2O2 200 μM"}, "[15]": {"settings": "vitamin C 100 μM, after 24 hours, not treated with H2O2"}, "[16]": {"settings": "vitamin C 100 and 1000 μM for 30 minutes"}},
  "note": "“Also recorded” adds a separate entry of the source. Read-outs that look alike come from different tables or passages of the source.",
  "data": [
    {"smiles": "N[C@@H](CCC(=O)N[C@@H](CS)C(=O)NCC(=O)O)C(=O)O", "note": "[Glutathione, glutathione]", "values": [
      {"measurement": "maintenance of vitamin C concentrations", "setting": "[1]; particles, presence of glutathione (FIGS. 18-19)", "result": "improved maintenance of vitamin C concentrations"},
      {"measurement": "vitamin C remaining", "setting": "[1]; past 14 days, glutathione 4-10 mM (FIG. 25)", "result": "More than half"},
      {"measurement": "change of cell viability", "setting": "LEC [2]; glutathione 4000 μM and 10000", "result": "decreased"},
      {"measurement": "cell viability", "setting": "LEC [2]; [8]", "result": "above 70%"},
      {"measurement": "change of cell viability", "setting": "ARPE-19 [3]; glutathione concentration above 100 μM", "result": "increased"},
      {"measurement": "cell viability", "setting": "ARPE-19 [3]; [8]", "result": "above 70%"}
    ]},
    {"smiles": "OO", "note": "[Hydrogen peroxide, hydrogen peroxide]", "values": [
      {"measurement": "increase in ROS activity", "setting": "LEC [4]; hydrogen peroxide 200 μM", "result": 1.5, "unit": "times"},
      {"measurement": "ROS activity", "setting": "LEC [4]; [9]", "result": "increased"},
      {"measurement": "ROS activity", "setting": "ARPE-19 [5]; [9]", "result": "did not affect; also recorded: did not significantly respond"},
      {"measurement": "cell viability", "setting": "LEC [2]; [10]", "result": "statistically lower"},
      {"measurement": "cell viability", "setting": "LEC [2]; [11]", "result": "significantly decreased the cell viability"},
      {"measurement": "cell viability", "setting": "LEC [2]; [12]", "result": "significantly decreased cell viability"},
      {"measurement": "cell viability", "setting": "LEC [2]; [13]", "result": "did not affect cell viability"},
      {"measurement": "cell viability", "setting": "ARPE-19 [3]; [10]", "result": "approximately the same or even higher"},
      {"measurement": "cell viability", "setting": "ARPE-19 [3]; [11]", "result": "had no effect"},
      {"measurement": "cell viability", "setting": "ARPE-19 [3]; [12]", "result": "significantly decreased cell viability"},
      {"measurement": "cell viability", "setting": "ARPE-19 [3]; [13]", "result": "did not affect cell viability"}
    ]},
    {"smiles": "O=C1O[C@H]([C@@H](O)CO)C(O)=C1O", "note": "[Vitamin C, ascorbic acid]", "values": [
      {"measurement": "vitamin C remaining", "setting": "[6]; 72 h", "result": 10, "unit": "%"},
      {"measurement": "vitamin C remaining", "setting": "[6]; 5 days", "result": 0, "unit": "%"},
      {"measurement": "reduction of ROS induced by hydrogen peroxide", "setting": "LEC [4]; [14]", "result": "not effective"},
      {"measurement": "ROS activity", "setting": "LEC [4]; [15]", "result": "returned to the same level as the control"},
      {"measurement": "ROS activity", "setting": "LEC [4]; vitamin C 1000 μM for 24 hours with H2O2", "result": "the same ROS activity as the no H2O2 no vitamin C control"},
      {"measurement": "ROS activity", "setting": "LEC [4]; [16]", "result": "15-30%"},
      {"measurement": "reduction of ROS induced by hydrogen peroxide", "setting": "ARPE-19 [5]; [14]", "result": "not effective"},
      {"measurement": "ROS activity", "setting": "ARPE-19 [5]; [15]", "result": "returned to the same level as the control"},
      {"measurement": "ROS activity", "setting": "ARPE-19 [5]; vitamin C 1000 μM for 24 hours", "result": "did not return to the normal control level"},
      {"measurement": "ROS activity", "setting": "ARPE-19 [5]; [16]", "result": "15-30%"}
    ]},
    {"smiles": "O=C1O[C@H]([C@@H](O)CO)C([O-])=C1O.[Na+]", "note": "[sodium ascorbate]", "values": [
      {"measurement": "concentration of 2 mM sodium ascorbate solution at time 0", "setting": "[7]", "result": 1400, "unit": "µM"}
    ]}
  ]
}
